Assay results as given in US20080318792A1, “Extension of pollination period” (priority 2007, published 2008).
Counter-ions that a name gives are not always drawn.

Tested on: Hughes 1883 hybrid corn seed
Experiment: Soil germination/emergence of corn seed treated with different forms of ABA in slurry
Format: in vivo
Details: 25 g/cwt as free acid
Procedure: Three forms of ABA were evaluated in this experiment 1) free acid, 2) ammonium salt, and 3) sodium salt. The cation is referred to as the “counter-ion” below. […] The treatments were made up in 3 ml samples of experimental aqueous seed treatment slurry. All of the seed treatment slurry samples contained CF-Clear film-forming agent and Colorcoat Red (Becker Underwood), each at 1 oz/cwt, and 0.167 oz/cwt Maxim XL fungicide (Syngenta). The slurry application volume was 20 oz/cwt (cwt=100 lbs of seed).
One hundred gram samples of Hughes 1883 hybrid corn seed were treated with the experimental slurries using a Hege 11 seed treater with a six-inch bowl.
The seed was planted in plastic boxes containing 1 kg of typical agricultural silt loam. Fifty seeds were planted 3 cm deep in each plastic box, and the soil in the box was adjusted to 21% soil moisture (wet-weight basis). Two replications of the experiment were incubated under constant light in a 25° C. chamber and two replications incubated under constant light in an 18° C. chamber. The boxes were watered up to the correct weight daily, and checked for emergence. Daily counts of seedlings were continued until emergence ceased. The final count of emerged seedlings was expressed as a percentage of the 50 seeds planted (GERM).
The daily counts were converted to proportions of the final germination of the box, and a Gompertz curve was fitted to the data from each box using SAS Proc NLIN. From the parameters of the model, median germination time (T50) and quartile range (QR) were estimated for each box. Analysis of variance was performed and means calculated for each of the three responses (GERM, T50, QR).

CC1=CC(=O)CC(C)(C)[C@@]1(O)/C=C/C(C)=C\C(=O)[O-].[Na+] [ABA sodium salt]
Final emergence (soil 18° C.): 92%
QR (soil 18° C.): 3.36 days
T50 (soil 18° C.): 10.9 days
Final emergence (soil 25° C.): 92%
QR (soil 25° C.): 1.31 days
T50 (soil 25° C.): 7.1 days

CC1=CC(=O)CC(C)(C)[C@@]1(O)/C=C/C(C)=C\C(=O)O [ABA ammonium salt]
Final emergence (soil 18° C.): 91%
QR (soil 18° C.): 3.52 days
T50 (soil 18° C.): 11.2 days
Final emergence (soil 25° C.): 91%
QR (soil 25° C.): 1.34 days
T50 (soil 25° C.): 7.4 days
